This note sets out measurements from ChEMBL document CHEMBL2176932, “De novo cyclic pseudopeptides containing aza-β3-amino acids exhibiting antimicrobial activities” (J Med Chem, 2012).

The term MIC denotes the lowest concentration that inhibits growth of the organism. What is called half-life is how long it takes for the measured level to halve. Low values mean fast loss, high ones slow loss. By HC50 is commonly meant the concentration that lyses half of the red blood cells.

In brackets after ≈: the same amount, converted by molar mass.

The test system of one data set is Pseudomonas aeruginosa. As to the kind of experiment: Antibacterial activity against Pseudomonas aeruginosa ATCC 27853 after 48 hrs by microtiter broth dilution method. The data set is classed as functional. The settings on record: ATCC 27853, 48 h.
Another data set deals with Micrococcus luteus. Briefly: Antibacterial activity against Micrococcus luteus ATCC 10240 after 48 hrs by microtiter broth dilution method. The format is functional. The settings on record: ATCC 10240, 48 h.
The subject of another data set is Aeromonas caviae. As to the kind of experiment: Antibacterial activity against Aeromonas caviae ATCC 15648 after 48 hrs by microtiter broth dilution method. The data set is classed as functional. The note with it: ATCC 15648, 48 h. In general terms: Broth dilution looks for growth in wells or tubes with falling amounts of substance.
Data set [1] can be described thus: Selectivity ratio of HC50 for sheep RBC to MIC for Escherichia coli ATCC 25922. The data set is classed as functional.
A further data set relates to Klebsiella aerogenes. As to the kind of experiment: Antibacterial activity against Enterobacter aerogenes ATCC 13048 after 48 hrs by microtiter broth dilution method. The data set is classed as functional. The note with it: ATCC 13048, 48 h.
A further data set deals with Staphylococcus aureus. As to the kind of experiment: Antibacterial activity against Staphylococcus aureus ATCC 25923 after 48 hrs by microtiter broth dilution method. The settings on record: ATCC 25923, 48 h. The format is functional.
For a further data set, the system named is Streptococcus equinus. Briefly: Antibacterial activity against Streptococcus equinus ATCC 5623 after 48 hrs by microtiter broth dilution method. The format is functional. The settings on record: ATCC 5623, 48 h.
A further data set deals with Lactococcus garvieae. Briefly: Antibacterial activity against Lactococcus garvieae ATCC 43921 after 48 hrs by microtiter broth dilution method. The settings on record: ATCC 43921, 48 h. The format is functional.
The nature of data set [2]: Selectivity ratio of MHC for sheep RBC to MIC for Listeria monocytogenes SOR 100. The data set is classed as functional.
The nature of data set [3]: Half life in bovine serum. The note with it: cattle. The format is ADME, cell-free, Bos taurus.
A further data set deals with Escherichia coli. Briefly: Antibacterial activity against Escherichia coli ATCC 25922 after 48 hrs by microtiter broth dilution method. The note with it: ATCC 25922, 48 h. The data set is classed as functional.
In another data set the test system is Priestia megaterium. As to the kind of experiment: Antibacterial activity against Bacillus megaterium ATCC 10778 after 48 hrs by microtiter broth dilution method. The data set is classed as functional. The note with it: ATCC 10778, 48 h.
The next data set deals with Klebsiella oxytoca. Briefly: Antibacterial activity against Klebsiella oxytoca CIP 7932 after 48 hrs by microtiter broth dilution method. The note with it: CIP 7932, 48 h. The data set is classed as functional.
The nature of data set [4]: Toxicity in sheep RBC assessed as hemolytic activity after 1 hr. The format is cell-based, Ovis aries, Erythrocyte. The settings on record: sheep red blood cells.
Data set [5] can be described thus: Selectivity ratio of MHC for sheep RBC to MIC for Staphylococcus aureus ATCC 25923. The format is functional.
The subject of a further data set is Salmonella enterica. As to the kind of experiment: Antibacterial activity against Salmonella enterica ATCC 13076 after 48 hrs by microtiter broth dilution method. The data set is classed as functional. The settings on record: ATCC 13076, 48 h.
For another data set, the system named is Listeria monocytogenes. As to the kind of experiment: Antibacterial activity against Listeria monocytogenes SOR 100 after 48 hrs by microtiter broth dilution method. The format is functional. The note with it: SOR 100, 48 h.
A short description of data set [6]: Toxicity in sheep RBC assessed as hemolytic activity at 100 uM after 1 hr. The data set is classed as cell-based, Ovis aries, Erythrocyte. The settings on record: sheep red blood cells, read-out: Activity.
A short description of data set [7]: Toxicity in sheep RBC assessed as minimal hemolytic concentration after 1 hr. The settings on record: erythrocyte. The format is cell-based, Ovis aries.
Data set [8] can be described thus: Selectivity ratio of HC50 for sheep RBC to MIC for Staphylococcus aureus ATCC 25923. The format is functional.
For a further data set, the system named is Enterococcus faecalis. As to the kind of experiment: Antibacterial activity against Enterococcus faecalis CIP 186 after 48 hrs by microtiter broth dilution method. The settings on record: CIP 186, 48 h. The format is functional.
Data set [9] is described as follows: Selectivity ratio of MHC for sheep RBC to MIC for Escherichia coli ATCC 25922. The data set is classed as functional.

In the case of `N=C(N)NCCC[C@@H]1NC(=O)CN(CC2CCCCC2)NC(=O)[C@H](Cc2c[nH]c3ccccc23)NC(=O)CN(Cc2ccc(F)cc2)NC(=O)[C@H](Cc2c[nH]c3ccccc23)NC(=O)CN(CCCCN)NC1=O`, the MIC with Pseudomonas aeruginosa was 50 µM (≈ 51 µg/mL); against Micrococcus luteus, 3.12 µM (≈ 3.18 µg/mL); against Aeromonas caviae, more than 100 µM; against Klebsiella aerogenes it was 12.5 µM (≈ 12.8 µg/mL); in the data set with Staphylococcus aureus it was 25 µM (≈ 25.5 µg/mL); in the data set with Streptococcus equinus, 6.25 µM (≈ 6.38 µg/mL). Moreover, the MIC in the data set on Lactococcus garvieae amounted to 25 µM (≈ 25.5 µg/mL); in the data set on Escherichia coli, 25 µM (≈ 25.5 µg/mL); against Priestia megaterium it was 1.56 µM (≈ 1.59 µg/mL); against Klebsiella oxytoca it was 25 µM (≈ 25.5 µg/mL); against Salmonella enterica, 25 µM (≈ 25.5 µg/mL); against Listeria monocytogenes, 6.25 µM (≈ 6.38 µg/mL). The compound further displayed an MIC in the data set with Enterococcus faecalis of 50 µM (≈ 51 µg/mL). For the same compound, the Selectivity ratio in [1] stood at 4; in data set [2], 16; in data set [5] it was 4; in [8], 4. Further, the half-life in data set [3] was more than 2 h. Moreover, in data set [4], the HC50 at 1 h is more than 100 µM. Also, the hemolysis at 1 h, 100 µM in data set [6] turned out to be 2.5%. Further, in data set [7], the MHC came to 100 µM.

With `CC(C)C[C@@H]1NC(=O)CN(Cc2ccc(-c3ccccc3)cc2)NC(=O)[C@H](CCCCN)NC(=O)CN(CCCCN)NC(=O)CN(Cc2ccc(-c3ccccc3)cc2)NC1=O`, the MIC with Pseudomonas aeruginosa is 50 µM (≈ 43.1 µg/mL); with Micrococcus luteus it was 3.12 µM (≈ 2.69 µg/mL); against Aeromonas caviae, more than 100 µM; in the data set with Klebsiella aerogenes, 25 µM (≈ 21.5 µg/mL); in the data set with Staphylococcus aureus, 25 µM (≈ 21.5 µg/mL); against Streptococcus equinus, 6.25 µM (≈ 5.38 µg/mL). The MIC against Lactococcus garvieae worked out at 50 µM (≈ 43.1 µg/mL); in the data set with Escherichia coli, 50 µM (≈ 43.1 µg/mL); against Priestia megaterium, 3.12 µM (≈ 2.69 µg/mL); against Klebsiella oxytoca, 50 µM (≈ 43.1 µg/mL); with Salmonella enterica it was 50 µM (≈ 43.1 µg/mL); in the data set on Listeria monocytogenes, 12.5 µM (≈ 10.8 µg/mL). Moreover, it took 50 µM (≈ 43.1 µg/mL) to inhibit growth with Enterococcus faecalis (MIC). Also, the Selectivity ratio in data set [1] turned out to be 2; in data set [9] it was 0.5; in data set [5], 1; in data set [8] it was 4. In addition, the HC50 at 1 h in data set [4] is more than 100 µM. For the same compound, the hemolysis at 1 h, 100 µM in [6] was determined as 30%. Besides, the MHC in [7] amounted to 25 µM.

In the case of `N=C(N)NCCC[C@@H]1NC(=O)CN(CCCCN)NC(=O)CN(Cc2ccc3ccccc3c2)NC(=O)[C@H](Cc2ccccc2)NC(=O)CN(Cc2ccc3ccccc3c2)NC1=O`, the MIC with Pseudomonas aeruginosa was 50 µM (≈ 43.6 µg/mL); against Micrococcus luteus, 6.25 µM (≈ 5.44 µg/mL); in the data set on Aeromonas caviae, more than 100 µM; against Klebsiella aerogenes, 100 µM (≈ 87.1 µg/mL); in the data set on Staphylococcus aureus, 50 µM (≈ 43.6 µg/mL); in the data set on Streptococcus equinus it was 12.5 µM (≈ 10.9 µg/mL). Also, the minimum inhibitory concentration (MIC) in the data set with Lactococcus garvieae is 100 µM (≈ 87.1 µg/mL); with Escherichia coli, 100 µM (≈ 87.1 µg/mL); in the data set on Priestia megaterium it was 3.12 µM (≈ 2.72 µg/mL); with Klebsiella oxytoca, more than 100 µM; in the data set on Salmonella enterica it was 100 µM (≈ 87.1 µg/mL); against Listeria monocytogenes, 25 µM (≈ 21.8 µg/mL). The minimal inhibitory concentration (MIC) against Enterococcus faecalis is more than 100 µM. For the same compound, the Selectivity ratio in [1] came to 1; in data set [9], 1; in data set [5], 2; in data set [8] it was 2. For the same compound, the HC50 at 1 h in data set [4] is more than 100 µM. For the same compound, the hemolysis at 1 h, 100 µM in [6] amounted to 1%.

As to `CC(C)C[C@@H]1NC(=O)CN(Cc2ccc(-c3ccccc3)cc2)NC(=O)[C@H](CC(C)C)NC(=O)CN(Cc2ccc(-c3ccccc3)cc2)NC(=O)[C@H](CCCCN)NC(=O)CN(CCCCN)NC1=O`, the minimal inhibitory concentration (MIC) with Pseudomonas aeruginosa was 12.5 µM (≈ 12.2 µg/mL); with Micrococcus luteus it was 0.78 µM (≈ 0.76 µg/mL); in the data set with Aeromonas caviae it was more than 100 µM; against Klebsiella aerogenes it was 25 µM (≈ 24.4 µg/mL); against Staphylococcus aureus, 1.56 µM (≈ 1.52 µg/mL); against Streptococcus equinus it was 1.56 µM (≈ 1.52 µg/mL). The MIC in the data set with Lactococcus garvieae is 3.12 µM (≈ 3.04 µg/mL); against Escherichia coli, 12.5 µM (≈ 12.2 µg/mL); in the data set with Priestia megaterium, 0.78 µM (≈ 0.76 µg/mL); against Klebsiella oxytoca it was 25 µM (≈ 24.4 µg/mL); in the data set on Salmonella enterica, 100 µM (≈ 97.4 µg/mL); against Listeria monocytogenes it was 1.56 µM (≈ 1.52 µg/mL). The MIC against Enterococcus faecalis worked out at 6.25 µM (≈ 6.09 µg/mL). Further, the Selectivity ratio in data set [1] stood at 1.2; in data set [9], 0.12; in data set [5] it was 1; in data set [8], 9.6. The 50% haemolytic concentration (HC50) at 1 h in [4] was 15 µM. Also, the hemolysis at 1 h, 100 µM in data set [6] amounted to 90%.
